This note sets out measurements from publication PMC10390517, “Design, synthesis, in vitro, and in silico evaluations of benzo[d]imidazole-amide-1,2,3-triazole-N-arylacetamide hybrids as new antidiabetic agents targeting α-glucosidase” (Scientific Reports, 2023).

As a reminder, the IC50 is the midpoint of a concentration-inhibition curve. As usually defined, the Ki is a measure of affinity in units of concentration, obtained from inhibition or displacement. Read a high Ki as lower affinity. As a reminder, the melting point is the temperature, or range, at which the solid turns liquid.

The structures appear in SMILES notation. Read-outs that look alike come from different tables or passages of the source. Where only a bound is given, the exact number is not on record here.

The target in series [1] is T1, α-glucosidase (Saccharomyces cerevisiae, UniProt P53341). The experiment in a line: biochemical. Format: biochemical. The conditions noted are these: for activity against α-glucosidase (in words): SAR discussion / conclusion, compared with acarbose; for IC50: yeast form of α-glucosidase, mean ± S.E. of at least three different experiments. The procedure:
The newly synthesized benzo[d]imidazole-amide-1,2,3-triazole-N-arylacetamide hybrids 8a–n were evaluated against yeast form of α-glucosidase.

The target in series [2] is T1, α-glucosidase. The experiment in a line: Kinetic study of α-glucosidase inhibition (Lineweaver–Burk plots). Format: biochemical, yeast. The procedure: Therefore, values of Vmax remained constant while the values of Km increased. […] Besides, the Ki value was 40.0 µM that was obtained by the secondary plot of Lineweaver–Burk plots (Fig. 2b).
Figure 2 Inhibitory kinetics of compound 8c on α-glucosidase. (a) Lineweaver–Burk plots for inhibition of compound 8c. (b) The secondary plot of Lineweaver–Burk plots for determination Ki value of compound 8c.
In vitro anti-α-glucosidase inhibition and kinetic study of the new compounds 8a–n were performed exactly according to our pervious reported works.

The nature of series [3]: In vitro cytotoxicity by MTT method, HDF. The settings on record: human, HDF normal human cells. (In general: Tetrazolium assays rely on reduction of a dye to a coloured formazan, in cell work by metabolically active cells.)
The test system of series [4] is normal human cell line (HDF). Briefly: In vitro cytotoxicity by MTT method, HDF. The settings on record: normal cell line HDF.
Series [5] in a line: In vitro cytotoxicity by MTT method, MCF-7. The conditions noted are these: human, MCF-7 breast cancer cells.
The test system of series [6] is breast cancer cell line (MCF-7). Briefly: In vitro cytotoxicity by MTT method, MCF-7. The settings on record: cancer cell line MCF-7.
[7] abbreviates: read-out: IC50 (α-glucosidase inhibitory activity).
The mark [8] stands for this setting: IC50 (α-glucosidase inhibitory activity).

T1 sequence (P53341 whole entry): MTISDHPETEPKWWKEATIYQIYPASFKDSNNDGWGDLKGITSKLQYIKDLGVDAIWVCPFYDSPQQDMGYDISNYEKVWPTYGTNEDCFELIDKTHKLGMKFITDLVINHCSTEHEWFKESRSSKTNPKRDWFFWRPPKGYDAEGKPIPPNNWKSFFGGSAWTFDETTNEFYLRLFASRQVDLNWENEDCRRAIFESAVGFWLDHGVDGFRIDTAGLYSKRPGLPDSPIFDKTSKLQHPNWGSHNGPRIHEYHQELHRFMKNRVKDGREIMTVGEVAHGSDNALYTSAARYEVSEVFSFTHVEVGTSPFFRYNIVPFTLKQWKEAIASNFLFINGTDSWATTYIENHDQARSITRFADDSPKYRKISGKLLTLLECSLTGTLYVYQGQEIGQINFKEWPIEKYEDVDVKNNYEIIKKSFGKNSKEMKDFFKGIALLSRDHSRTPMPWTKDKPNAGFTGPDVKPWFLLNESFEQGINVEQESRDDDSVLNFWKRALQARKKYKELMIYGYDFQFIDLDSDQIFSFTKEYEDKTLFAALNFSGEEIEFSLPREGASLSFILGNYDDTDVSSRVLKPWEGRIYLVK

In the case of `O=C(Cn1cc(CNC(=O)c2nc3ccccc3[nH]2)nn1)Nc1ccccc1` [8a, N-((1-(2-oxo-2-(phenylamino)ethyl)-1H-1,2,3-triazol-4-yl)methyl)-1H-benzo[d]imidazole-2-carboxamide], the “activity against α-glucosidase (in words)” value on α-glucosidase [1] was “have not activity”. For the same molecule, the IC50 on α-glucosidase [1] (setting [7]) is greater than 750 µM.

Turning to `Cc1ccccc1NC(=O)Cn1cc(CNC(=O)c2nc3ccccc3[nH]2)nn1` [8b, N-((1-(2-oxo-2-(o-tolylamino)ethyl)-1H-1,2,3-triazol-4-yl)methyl)-1H-benzo[d]imidazole-2-carboxamide], the IC50 on α-glucosidase [1] (setting [8]) is greater than 750 µM. In addition, at α-glucosidase [1], the “activity against α-glucosidase (in words)” value was “have not activity”.

`Cc1cccc(NC(=O)Cn2cc(CNC(=O)c3nc4ccccc4[nH]3)nn2)c1` [8c, N-((1-(2-oxo-2-(m-tolylamino)ethyl)-1H-1,2,3-triazol-4-yl)methyl)-1H-benzo[d]imidazole-2-carboxamide] registered a melting point of 206 to 208 °C. Also, the IC50 against α-glucosidase [1] (setting [8]) worked out at 49 ± 0.4 µM. Besides, the “fold more potent than positive control (acarbose)” value at α-glucosidase [1] (ratio of IC50 values vs acarbose) came out at 15.3 fold. Moreover, the “inhibition mechanism against α-glucosidase” value on α-glucosidase [2] (Lineweaver–Burk plot, Vmax constant, Km increased) is listed as “competitive inhibitor”. This molecule also displayed a Ki at α-glucosidase [2] (secondary plot of Lineweaver–Burk plots) of 40 µM. In series [3], this molecule showed an IC50 greater than 200 µM. Moreover, the “cytotoxic activity (in words)” value in series [4] is “did not show cytotoxic activity”. Besides, in series [5], the IC50 is greater than 200 µM. Besides, in series [6], the “cytotoxic activity (in words)” value was “did not show cytotoxic activity”.

`Cc1ccc(NC(=O)Cn2cc(CNC(=O)c3nc4ccccc4[nH]3)nn2)cc1` [8d, N-((1-(2-oxo-2-(p-tolylamino)ethyl)-1H-1,2,3-triazol-4-yl)methyl)-1H-benzo[d]imidazole-2-carboxamide] returned a melting point of 209 to 211 °C. Also, on α-glucosidase [1] (setting [8]), the IC50 is greater than 750 µM. Also, the “activity against α-glucosidase (in words)” value at α-glucosidase [1] is “have not activity”.

For `Cc1cccc(NC(=O)Cn2cc(CNC(=O)c3nc4ccccc4[nH]3)nn2)c1C` [8e, N-((1-(2-((2,3-dimethylphenyl)amino)-2-oxoethyl)-1H-1,2,3-triazol-4-yl)methyl)-1H-benzo[d]imidazole-2-carboxamide], the melting point was 216 to 218 °C. For the same molecule, the “inhibitory activity diminished (fold) relative to 8c” value against α-glucosidase [1] (addition of a 2-methyl group to 3-methyl derivative 8c) is “around 2.5 fold”. Further, the IC50 at α-glucosidase [1] (setting [7]) amounted to 119.2 ± 0.8 µM. The same molecule came in with a half-maximal inhibitory concentration (IC50) in series [3] greater than 200 µM. The “cytotoxic activity (in words)” value in series [4] is on record as “did not show cytotoxic activity”. In series [5], the IC50 is greater than 200 µM. Also, in series [6], the “cytotoxic activity (in words)” value is “did not show cytotoxic activity”.

`Cc1ccc(NC(=O)Cn2cc(CNC(=O)c3nc4ccccc4[nH]3)nn2)c(C)c1` [8f, N-((1-(2-((2,4-dimethylphenyl)amino)-2-oxoethyl)-1H-1,2,3-triazol-4-yl)methyl)-1H-benzo[d]imidazole-2-carboxamide] had a melting point of 226 to 228 °C. In addition, the IC50 on α-glucosidase [1] (setting [7]) was determined as 422.6 ± 1.1 µM.

On to `Cc1cccc(C)c1NC(=O)Cn1cc(CNC(=O)c2nc3ccccc3[nH]2)nn1` [8g, N-((1-(2-((2,6-dimethylphenyl)amino)-2-oxoethyl)-1H-1,2,3-triazol-4-yl)methyl)-1H-benzo[d]imidazole-2-carboxamide], for which the melting point is 222 to 224 °C. The IC50 on α-glucosidase [1] (setting [7]) was 125.6 ± 0.3 µM. Besides, the IC50 in series [3] was greater than 200 µM. Moreover, the “cytotoxic activity (in words)” value in series [4] is “did not show cytotoxic activity”. In series [5], this molecule had an IC50 greater than 200 µM. For the same molecule, the “cytotoxic activity (in words)” value in series [6] is given as “did not show cytotoxic activity”.

For `CCc1ccc(NC(=O)Cn2cc(CNC(=O)c3nc4ccccc4[nH]3)nn2)cc1` [8h, N-((1-(2-((4-ethylphenyl)amino)-2-oxoethyl)-1H-1,2,3-triazol-4-yl)methyl)-1H-benzo[d]imidazole-2-carboxamide], the melting point is 213 to 215 °C. In addition, the IC50 on α-glucosidase [1] (setting [7]) is 251.9 ± 1.6 µM.

With `COc1ccc(NC(=O)Cn2cc(CNC(=O)c3nc4ccccc4[nH]3)nn2)cc1` [8i, N-((1-(2-((4-methoxyphenyl)amino)-2-oxoethyl)-1H-1,2,3-triazol-4-yl)methyl)-1H-benzo[d]imidazole-2-carboxamide], the melting point lay in the range of 235 to 237 °C. In addition, the IC50 against α-glucosidase [1] (setting [8]) is greater than 750 µM.

The molecule `O=C(Cn1cc(CNC(=O)c2nc3ccccc3[nH]2)nn1)Nc1ccc(F)cc1` [8j, N-((1-(2-((4-fluorophenyl)amino)-2-oxoethyl)-1H-1,2,3-triazol-4-yl)methyl)-1H-benzo[d]imidazole-2-carboxamide] displayed a melting point of 245 to 247 °C. In addition, the IC50 against α-glucosidase [1] (setting [8]) was greater than 750 µM.

Consider `O=C(Cn1cc(CNC(=O)c2nc3ccccc3[nH]2)nn1)Nc1ccc(Cl)cc1` [8k, N-((1-(2-((4-chlorophenyl)amino)-2-oxoethyl)-1H-1,2,3-triazol-4-yl)methyl)-1H-benzo[d]imidazole-2-carboxamide], for which the melting point was in the range of 236 to 238 °C. This molecule yielded an IC50 against α-glucosidase [1] (setting [8]) of 134.2 ± 0.9 µM.

Molecule `O=C(Cn1cc(CNC(=O)c2nc3ccccc3[nH]2)nn1)Nc1ccc(Cl)cc1Cl` [8l, N-((1-(2-((2,4-dichlorophenyl)amino)-2-oxoethyl)-1H-1,2,3-triazol-4-yl)methyl)-1H-benzo[d]imidazole-2-carboxamide] had a melting point of 247 to 249 °C. For the same molecule, the IC50 at α-glucosidase [1] (setting [7]) amounted to 668.5 ± 1.4 µM.

Take `O=C(Cn1cc(CNC(=O)c2nc3ccccc3[nH]2)nn1)Nc1ccc(Br)cc1` [8m, N-((1-(2-((4-bromophenyl)amino)-2-oxoethyl)-1H-1,2,3-triazol-4-yl)methyl)-1H-benzo[d]imidazole-2-carboxamide]: the melting point was in the range of 227 to 229 °C. For the same molecule, the IC50 against α-glucosidase [1] (setting [8]) came to 183.6 ± 0.8 µM.

`O=C(Cn1cc(CNC(=O)c2nc3ccccc3[nH]2)nn1)Nc1ccc([N+](=O)[O-])cc1` [8n, N-((1-(2-((4-nitrophenyl)amino)-2-oxoethyl)-1H-1,2,3-triazol-4-yl)methyl)-1H-benzo[d]imidazole-2-carboxamide] gave a melting point of 259 to 261 °C. Besides, the IC50 at α-glucosidase [1] (setting [7]) was greater than 750 µM.
